Measured values taken from the supplement of paper PMC10326909.

Assay: ESI positive response factor (isotope-corrected peak area per molar concentration) in SFC/ESI/HRMS (area units per M); higher = higher ionization efficiency
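Note: standards in acetonitrile/water run in triplicate on a zwitterionic HILIC column, CO2–methanol gradient containing 20 mmol/L ammonium acetate, postcolumn makeup flow, Orbitrap full-scan detection.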

ESI positive response factor (0.0875 µM)	ESI positive response factor (0.35 µM)	ESI positive response factor (0.875 µM)	ESI positive response factor (0.0175 µM)	ESI positive response factor (0.035 µM)	ESI positive response factor (0.175 µM)	Compound	further results
1.56e+15	6.42e+15	6.4e+15	–	–	–	CC(=O)N1CC(O)C[C@H]1C(=O)O (stereo in doubt) [Trans-1-acetyl-4-hydroxy-L-prolin]	ESI positive response factor (1.75 µM): 6.39e+15
1.92e+17	3.23e+17	4.13e+17	4.89e+17	–	3.18e+17	C1CN(CCOCCN2CCOCC2)CCO1 [4,4'-(Oxydi-2,1-ethanediyl)bismorpholine]	ESI positive response factor (1.75 µM): 3.43e+17
–	–	–	1.78e+16	2.97e+16	–	O=c1ccnc[nH]1 [4-Pyrimidinol]	–
8.08e+14	2.17e+15	2.09e+15	–	–	–	Cn1c(N)c(NC=O)c(=O)n(C)c1=O [6-Amino-1,3dimethyl-5-(formylamino)uracil]	ESI positive response factor (1.75 µM): 2.18e+15
1.85e+16	1.71e+16	–	–	1.46e+16	1.59e+16	C#C[C@]1(O)CC[C@H]2[C@@H]3CCc4cc(O)ccc4[C@H]3CC[C@@]21C [17-Alpha-Ethinylestradiol]	–
–	3.14e+15	3.18e+15	–	–	3.1e+15	CC(=O)NCCCS(=O)(=O)O [Acamprosate]	ESI positive response factor (1.75 µM): 3.25e+15
4.18e+16	4.29e+16	–	3.61e+16	4.56e+16	3.74e+16	CC(=O)Nc1ccc(O)cc1 [Acetaminophen]	–
2.4e+17	2.13e+17	–	2.2e+17	1.98e+17	2.16e+17	CC(=O)OCC[N+](C)(C)C [Acetylcholine]	–
1.26e+17	–	–	–	1.46e+17	–	Nc1ncnc2c1ncn2C1OC(CO)C(O)C1O (stereo not drawn) [Adenosine]	–
3.69e+17	4.54e+17	–	–	4.1e+17	4.36e+17	CN(C)CCC=C1c2ccccc2CCc2ccccc21 [Amitriptyline]	–
1.82e+17	1.8e+17	–	1.75e+17	1.81e+17	1.75e+17	CC(C)NCC(O)COc1ccc(CC(N)=O)cc1 (stereo not drawn) [Atenolol]	–
1.52e+16	1.55e+16	–	–	1.45e+16	1.36e+16	O=c1[nH]sc2ccccc12 [Benzisothiazolinone]	–
1.14e+17	–	–	1.5e+17	1.36e+17	–	C[N+](C)(C)CC(=O)O [Betaine]	–
9.48e+17	–	–	8.07e+17	8.73e+17	9.83e+17	CCCCC(CC)CNCC(CC)CCCC (stereo not drawn) [Bis(2-ethylhexyl)amine]	–
1.65e+17	1.6e+17	–	1.43e+17	1.76e+17	1.64e+17	CC(C)NCC(O)COc1ccc(C(=O)O)cc1 (stereo not drawn) [Bisoprolol-M3]	–

Second part, the molecule before the results:

Compound	ESI positive response factor (0.0875 µM)	ESI positive response factor (0.35 µM)	ESI positive response factor (0.875 µM)	ESI positive response factor (0.0175 µM)	ESI positive response factor (0.035 µM)	ESI positive response factor (0.175 µM)	further results
CN1C(C)(C)CC(O)CC1(C)C [1,2,2,6,6-Pentamethyl-4-piperidinol]	5.02e+17	4.69e+17	4.18e+17	4.91e+17	5.26e+17	4.63e+17	ESI positive response factor (1.75 µM): 3.68e+17
CN1CCN(C)C1=O [1,3-Dimethyl-2-imidazolidinone]	6.75e+16	–	–	6.51e+16	7.85e+16	6.53e+16	–
Cn1cnc2c1c(=O)n(CCCC(=O)O)c(=O)n2C [1-(3-Carboxypropyl)-3,7-dimethyl-xanthin]	2.2e+16	2.34e+16	2.22e+16	1.77e+16	2.12e+16	2e+16	–
CC(O)CN(CCO)CCO (stereo not drawn) [1-[N,N-Bis(2-hydroxyethyl)amino]-2-propanol]	3.24e+17	2.94e+17	–	2.91e+17	3.14e+17	2.77e+17	–
c1ccc2[nH]nnc2c1 [1H-Benzotriazol]	1.11e+16	1.37e+16	–	–	7.96e+15	1.18e+16	–
CC1(C)CC(O)CC(C)(C)N1 [2,2,6,6-Tetramethyl-4-piperidinol]	1.53e+17	1.58e+17	–	1.95e+17	1.78e+17	1.47e+17	–
Nc1nc(N)c2nc(CO)cnc2n1 [2,4-Diamino-6-(hydroxymethyl)pteridine]	4.27e+16	3.92e+16	4.05e+16	2.75e+16	4.33e+16	3.56e+16	–
NC(=O)c1c(Cl)cccc1Cl [2,6-Dichlorbenzamid]	2.14e+16	2.46e+16	2.38e+16	–	1.78e+16	2.26e+16	–
CCCCCC(C)N (stereo not drawn) [2-Aminoheptane]	1.47e+16	–	–	–	1.87e+16	–	–
Nc1ccccn1 [2-Aminopyridine]	1.55e+16	1.73e+16	–	–	1.33e+16	1.48e+16	–
c1ccc(CC2=NCCN2)cc1 [2-Benzylimidazoline]	–	5.75e+15	5.13e+15	–	–	4.79e+15	ESI positive response factor (1.75 µM): 4.96e+15
CCCCC(CC)CN (stereo not drawn) [2-Ethyl-1-hexylamine]	–	1.94e+16	–	–	–	2.01e+16	–
O=S(=O)(O)c1ccc2nc(-c3ccccc3)[nH]c2c1 [2-Phenyl-5-benzimidazole]	7.22e+14	3.87e+15	4.7e+15	–	–	–	ESI positive response factor (1.75 µM): 4.96e+15
OCC[C@@H]1CCCC[NH2+]1 [2-Piperidineethanol]	–	–	–	–	–	–	ESI positive response factor (0.0122 µM): 1.24e+17; ESI positive response factor (0.0244 µM): 1.22e+17; ESI positive response factor (0.061 µM): 9.77e+16; ESI positive response factor (0.122 µM): 1.07e+17; ESI positive response factor (0.244 µM): 1.07e+17
O=C1CCCN1 [2-Pyrrolidinone]	–	8.52e+15	1.07e+16	–	–	8.26e+15	ESI positive response factor (1.75 µM): 8.7e+15
C[NH2+]C[C@H](O)CO [3-Methylamino-1,2-propanediol]	–	–	–	–	–	–	ESI positive response factor (0.0122 µM): 7.17e+16; ESI positive response factor (0.0244 µM): 4.4e+16; ESI positive response factor (0.061 µM): 6.78e+16; ESI positive response factor (0.122 µM): 6.39e+16; ESI positive response factor (0.244 µM): 7.28e+16; ESI positive response factor (0.61 µM): 6.66e+16
Cc1cc(=O)oc2cc(O)ccc12 [4-Methylumbelliferone]	–	–	–	–	–	–	ESI positive response factor (0.0122 µM): 7.52e+16; ESI positive response factor (0.0244 µM): 8.88e+16; ESI positive response factor (0.061 µM): 7.61e+16; ESI positive response factor (0.122 µM): 7.61e+16; ESI positive response factor (0.244 µM): 7.56e+16
COC(=O)C1=CCCN(C)C1 [Arecolin]	4.13e+17	3.77e+17	–	4.44e+17	4.27e+17	3.78e+17	–
COC(=O)NS(=O)(=O)c1ccc(N)cc1 [Asulam]	1.31e+16	1.46e+16	1.49e+16	–	1.24e+16	1.29e+16	ESI positive response factor (1.75 µM): 1.43e+16
CCNc1nc(Cl)nc(NC(C)C)n1 [Atrazine]	9.8e+17	–	–	1.04e+18	1.07e+18	9.03e+17	–
COP(=O)(OC)SCn1c(=O)oc2cc(Cl)cnc21 [Azamethiphos]	6.44e+17	–	–	6.62e+17	7.29e+17	6.11e+17	–
